In patent US10004701B2, “Methods and compositions for treating infection” (UNIVERSITY OF ROCHESTER, priority 2012, dated 2018):
Where a name gives a salt, the structure may show the parent alone. Read-outs that look alike come from different tables or passages of the source.

What was measured:
Assay in all cases: AK assay 384-well format, Prestwick library screening
E. faecium = format: cell-based, Enterococcus faecium; conditions: 50 μM final drug concentration; for fold induction at 50 µM: Enterococcus faecium, 3 h
[1] = test system: S. aureus strain USA300-0114; format: cell-based, Staphylococcus aureus; conditions: 50 μM final drug concentration; for fold induction at 50 µM: Staphylococcus aureus, USA300, 3 h
K. pneumoniae = format: cell-based, Klebsiella pneumoniae; conditions: 50 μM final drug concentration; for fold induction at 50 µM: Klebsiella pneumoniae, 3 h
[2] = test system: A. baumannii strain 98-37-09; format: cell-based, Acinetobacter baumannii; conditions: 50 μM final drug concentration; for fold induction at 50 µM: Acinetobacter baumannii, 983709, 3 h
P. aeruginosa = format: cell-based, Pseudomonas aeruginosa; conditions: 50 μM final drug concentration; for fold induction at 50 µM: Pseudomonas aeruginosa, 3 h
E. cloacae = format: cell-based, Enterobacter cloacae; conditions: 50 μM final drug concentration; for fold induction at 50 µM: Enterobacter cloacae, 3 h
E. coli = format: cell-based, Escherichia coli; conditions: 50 μM final drug concentration; for fold induction at 50 µM: Escherichia coli, 3 h
[3] = planktonic, cutoff for positive-scoring molecules 3-fold increase, read-out: AK-based Prestwick Library Screening Results, E. faecium (fold increase in extracellular AK activity)
[4] = planktonic, cutoff for positive-scoring molecules 3-fold increase, read-out: AK-based Prestwick Library Screening Results, S. aureus (fold increase in extracellular AK activity)
[5] = planktonic, cutoff for positive-scoring molecules 3-fold increase, read-out: AK-based Prestwick Library Screening Results, K. pneumoniae (fold increase in extracellular AK activity)
[6] = planktonic, cutoff for positive-scoring molecules 3-fold increase, read-out: AK-based Prestwick Library Screening Results, A. baumannii (fold increase in extracellular AK activity)
[7] = planktonic, cutoff for positive-scoring molecules 3-fold increase, read-out: AK-based Prestwick Library Screening Results, P. aeruginosa (fold increase in extracellular AK activity)
[8] = planktonic, cutoff for positive-scoring molecules 3-fold increase, read-out: AK-based Prestwick Library Screening Results, E. cloacae (fold increase in extracellular AK activity)
[9] = planktonic, cutoff for positive-scoring molecules 3-fold increase, read-out: AK-based Prestwick Library Screening Results, E. coli (fold increase in extracellular AK activity)
[10] = planktonic E. faecium, cutoff for positive-scoring molecules 3-fold increase, read-out: AK-based Prestwick Library Screening Results, E. faecium (increase in extracellular AK activity)
[11] = planktonic S. aureus, cutoff for positive-scoring molecules 3-fold increase, read-out: AK-based Prestwick Library Screening Results, S. aureus (increase in extracellular AK activity)
[12] = planktonic K. pneumoniae, cutoff for positive-scoring molecules 3-fold increase, read-out: AK-based Prestwick Library Screening Results, K. pneumoniae (increase in extracellular AK activity)
[13] = planktonic A. baumannii, cutoff for positive-scoring molecules 3-fold increase, read-out: AK-based Prestwick Library Screening Results, A. baumannii (increase in extracellular AK activity)
[14] = planktonic P. aeruginosa, cutoff for positive-scoring molecules 3-fold increase, read-out: AK-based Prestwick Library Screening Results, P. aeruginosa (increase in extracellular AK activity)
[15] = planktonic E. cloacae, cutoff for positive-scoring molecules 3-fold increase, read-out: AK-based Prestwick Library Screening Results, E. cloacae (increase in extracellular AK activity)
[16] = planktonic E. coli, cutoff for positive-scoring molecules 3-fold increase, read-out: AK-based Prestwick Library Screening Results, E. coli (increase in extracellular AK activity)
[17] = planktonic E. faecium, […], read-out: AK-based Prestwick Library Screening Results, E. faecium (increase in extracellular AK activity)
[18] = planktonic S. aureus, […], read-out: AK-based Prestwick Library Screening Results, S. aureus (increase in extracellular AK activity)
[19] = planktonic K. pneumoniae, […], read-out: AK-based Prestwick Library Screening Results, K. pneumoniae (increase in extracellular AK activity)
[20] = planktonic A. baumannii, […], read-out: AK-based Prestwick Library Screening Results, A. baumannii (increase in extracellular AK activity)
[21] = planktonic P. aeruginosa, […], read-out: AK-based Prestwick Library Screening Results, P. aeruginosa (increase in extracellular AK activity)
[22] = planktonic E. cloacae, […], read-out: AK-based Prestwick Library Screening Results, E. cloacae (increase in extracellular AK activity)
[23] = planktonic E. coli, […], read-out: AK-based Prestwick Library Screening Results, E. coli (increase in extracellular AK activity)
[24] = planktonic, cutoff for positive 3-fold increase, read-out: AK-based Prestwick Library Screening Results, E. faecium (fold increase in extracellular AK activity)
[25] = planktonic, cutoff for positive 3-fold increase, read-out: AK-based Prestwick Library Screening Results, S. aureus (fold increase in extracellular AK activity)
[26] = planktonic, cutoff for positive 3-fold increase, read-out: AK-based Prestwick Library Screening Results, K. pneumoniae (fold increase in extracellular AK activity)
[27] = planktonic, cutoff for positive 3-fold increase, read-out: AK-based Prestwick Library Screening Results, A. baumannii (fold increase in extracellular AK activity)
[28] = planktonic, cutoff for positive 3-fold increase, read-out: AK-based Prestwick Library Screening Results, P. aeruginosa (fold increase in extracellular AK activity)
[29] = planktonic, cutoff for positive 3-fold increase, read-out: AK-based Prestwick Library Screening Results, E. cloacae (fold increase in extracellular AK activity)
[30] = planktonic, cutoff for positive 3-fold increase, read-out: AK-based Prestwick Library Screening Results, E. coli (fold increase in extracellular AK activity)

O=C(O)c1ccccc1OP(=O)(O)O [Fosfosal]
fold induction at 50 µM (E. faecium; [3]): 0.9 | fold induction at 50 µM [1, 4]: 0.7 | fold induction at 50 µM (K. pneumoniae; [5]): 0.6 | fold induction at 50 µM [2, 6]: 0.8 | fold induction at 50 µM (P. aeruginosa; [7]): 0.7 | fold induction at 50 µM (E. cloacae; [8]): 0.8 | fold induction at 50 µM (E. coli; [9]): 0.7

O=C1OC(CN2CCOCC2)CN1/N=C/c1ccc([N+](=O)[O-])o1 (centres unmarked) [Furaltadone hydrochloride]
fold induction at 50 µM (E. faecium; [3]): 1.1 | fold induction at 50 µM [1, 4]: 0.7 | fold induction at 50 µM (K. pneumoniae; [5]): 2.6 | fold induction at 50 µM [2, 6]: 1 | fold induction at 50 µM (P. aeruginosa; [7]): 1.1 | fold induction at 50 µM (E. cloacae; [8]): 1.7 | fold induction at 50 µM (E. coli; [9]): 0.9

O=C1OCCN1/N=C/c1ccc([N+](=O)[O-])o1 [Furazolidone]
fold induction at 50 µM (E. faecium; [3]): 0.9 | fold induction at 50 µM [1, 4]: 0.8 | fold induction at 50 µM (K. pneumoniae; [5]): 3.2 | fold induction at 50 µM [2, 6]: 0.4 | fold induction at 50 µM (P. aeruginosa; [7]): 0.6 | fold induction at 50 µM (E. cloacae; [8]): 0.6 | fold induction at 50 µM (E. coli; [9]): 0.8

NS(=O)(=O)c1cc(C(=O)O)c(NCc2ccco2)cc1Cl [Furosemide]
fold induction at 50 µM (E. faecium; [10]): 0.9 | fold induction at 50 µM [1, 11]: 0.7 | fold induction at 50 µM (K. pneumoniae; [12]): 0.7 | fold induction at 50 µM [2, 13]: 0.8 | fold induction at 50 µM (P. aeruginosa; [14]): 0.9 | fold induction at 50 µM (E. cloacae; [15]): 0.8 | fold induction at 50 µM (E. coli; [16]): 1

CCCCc1ccc(C(=O)O)nc1 [Fusaric acid]
fold induction at 50 µM (E. faecium; [17]): 1.1 | fold induction at 50 µM [1, 18]: 0.9 | fold induction at 50 µM (K. pneumoniae; [19]): 0.9 | fold induction at 50 µM [2, 20]: 0.9 | fold induction at 50 µM (P. aeruginosa; [21]): 1.1 | fold induction at 50 µM (E. cloacae; [22]): 1.2 | fold induction at 50 µM (E. coli; [23]): 0.8

CC(=O)O[C@H]1C[C@@]2(C)[C@@H](C[C@@H](O)[C@H]3[C@@]4(C)CC[C@@H](O)[C@@H](C)[C@@H]4CC[C@@]32C)/C1=C(\CCC=C(C)C)C(=O)O [Fusidic acid sodium salt]
fold induction at 50 µM (E. faecium; [24]): 1.1 | fold induction at 50 µM [1, 25]: 4.2 | fold induction at 50 µM (K. pneumoniae; [26]): 1.1 | fold induction at 50 µM [2, 27]: 1.3 | fold induction at 50 µM (P. aeruginosa; [28]): 1.1 | fold induction at 50 µM (E. cloacae; [29]): 1.4 | fold induction at 50 µM (E. coli; [30]): 1.1

Fc1ccc(C(OCCN2CCN(CCCc3ccccc3)CC2)c2ccc(F)cc2)cc1 [GBR 12909 dihydrochloride]
fold induction at 50 µM (E. faecium; [24]): 1.3 | fold induction at 50 µM [1, 25]: 1.5 | fold induction at 50 µM (K. pneumoniae; [26]): 1 | fold induction at 50 µM [2, 27]: 2.2 | fold induction at 50 µM (P. aeruginosa; [28]): 1.2 | fold induction at 50 µM (E. cloacae; [29]): 1.5 | fold induction at 50 µM (E. coli; [30]): 1.4

NCC1(CC(=O)O)CCCCC1 [Gabapentin]
fold induction at 50 µM (E. faecium; […], read-out: AK-based Prestwick Library Screening Results, E. faecium (fold increase in extracellular AK activity)): 1 | fold induction at 50 µM ([1]; […], read-out: AK-based Prestwick Library Screening Results, S. aureus (fold increase in extracellular AK activity)): 1.5 | fold induction at 50 µM (K. pneumoniae; […], read-out: AK-based Prestwick Library Screening Results, K. pneumoniae (fold increase in extracellular AK activity)): 1.1 | fold induction at 50 µM ([2]; […], read-out: AK-based Prestwick Library Screening Results, A. baumannii (fold increase in extracellular AK activity)): 1.4 | fold induction at 50 µM (P. aeruginosa; […], read-out: AK-based Prestwick Library Screening Results, P. aeruginosa (fold increase in extracellular AK activity)): 1.3 | fold induction at 50 µM (E. cloacae; […], read-out: AK-based Prestwick Library Screening Results, E. cloacae (fold increase in extracellular AK activity)): 1.6 | fold induction at 50 µM (E. coli; […], read-out: AK-based Prestwick Library Screening Results, E. coli (fold increase in extracellular AK activity)): 1.4

COc1ccc(-c2ccc(=N)n(CCCC(=O)O)n2)cc1 [Gabazine]
fold induction at 50 µM (E. faecium; [10]): 1.1 | fold induction at 50 µM [1, 11]: 1.1 | fold induction at 50 µM (K. pneumoniae; [12]): 0.8 | fold induction at 50 µM [2, 13]: 1.1 | fold induction at 50 µM (P. aeruginosa; [14]): 1 | fold induction at 50 µM (E. cloacae; [15]): 1.3 | fold induction at 50 µM (E. coli; [16]): 1

CCOC(=O)c1ccc(OC(=O)CCCCCN=C(N)N)cc1.CS(=O)(=O)O [Gabexate mesilate]
AK-based Prestwick library screening result, E. faecium (fold increase in extracellular AK activity) (E. faecium; planktonic E. faecium, positive cutoff 3-fold increase): 1.1 | AK-based Prestwick library screening result, S. aureus (fold increase in extracellular AK activity) ([1]; planktonic S. aureus, positive cutoff 3-fold increase): 1.3 | AK-based Prestwick library screening result, K. pneumoniae (fold increase in extracellular AK activity) (K. pneumoniae; planktonic K. pneumoniae, positive cutoff 3-fold increase): 0.9 | AK-based Prestwick library screening result, A. baumannii (fold increase in extracellular AK activity) ([2]; planktonic A. baumannii, positive cutoff 3-fold increase): 1.1 | AK-based Prestwick library screening result, P. aeruginosa (fold increase in extracellular AK activity) (P. aeruginosa; planktonic P. aeruginosa, positive cutoff 3-fold increase): 1.1 | AK-based Prestwick library screening result, E. cloacae (fold increase in extracellular AK activity) (E. cloacae; planktonic E. cloacae, positive cutoff 3-fold increase): 1.4 | AK-based Prestwick library screening result, E. coli (fold increase in extracellular AK activity) (E. coli; planktonic E. coli, positive cutoff 3-fold increase): 1.1

COc1ccc2c3c1O[C@H]1C[C@@H](O)C=C[C@@]31CCN(C)C2 [Galanthamine hydrobromide]
fold induction at 50 µM (E. faecium; [17]): 0.9 | fold induction at 50 µM [1, 18]: 0.8 | fold induction at 50 µM (K. pneumoniae; [19]): 0.8 | fold induction at 50 µM [2, 20]: 0.8 | fold induction at 50 µM (P. aeruginosa; [21]): 0.8 | fold induction at 50 µM (E. cloacae; [22]): 1 | fold induction at 50 µM (E. coli; [23]): 0.9
